Drawing on PubChem BioAssay (NCI), this text covers TGI and GI50 for 26 compounds.

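Each compound was tested at five concentrations against cells in 96-well plates for 48 hours. Abbreviation: GI50, concentration required for 50% inhibition of growth. At the TGI there is no net growth.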

The first test has as its system NCI-H460 lung. Briefly: DTP human tumour cell line panel, 48 h.
`Cc1ccc2c(c1C)CC1(Cc3c(C)ccc(C)c3C1=O)C2=O` (configuration not stated) came in with a TGI greater than 100 µM.

`O=CN1CCN(C(=O)c2ccco2)C1=S` had a TGI of 42.1 µM.

Regarding `O=C1/C(=C/c2ccc(Cl)cc2)CCCc2ccc(F)cc21`, the GI50 is 20.1 µM and the TGI amounted to 54 µM.

For the compound `CC(=O)C1(O)CCC2(O)C3(O)CC=C4CC(O)CCC4(C)C3CC(OC(=O)c3ccc(O)cc3)C12C` (configuration not stated), the TGI was greater than 100 µM.

Consider `O=C1/C(=C/c2ccncc2)C(n2cccc2)c2c(Br)sc(Br)c21` (configuration not stated), for which the TGI came to 18.1 µM. This lies in the double-digit micromolar range.

On to `COCC#C[C@@]1(O)CCCCC1CC(OC)OC` (some centres not stated), for which the TGI is greater than 100 µM.

`C=C1CC(COc2ccc3c(C)c(C)c(=O)oc3c2C)(c2ccccc2)OC1=O` (configuration not stated) returned a TGI of 18 µM.

For `CC(=O)OCC(=O)O[C@@H]1[C@H]2[C@@H](OC(=O)c3ccccc3)[C@@H](C)C[C@]2(O)[C@H](OC(C)=O)[C@@]2(C)C[C@]1(OC(C)=O)C[C@H]1C(=O)C(C)(C)[C@@H](OC(C)=O)[C@@H]12`, the TGI was greater than 25 µM.

Turning to `O=C(Sc1c(-c2ccccc2)c(=O)n(-c2ccccc2)c(=S)n1-c1ccccc1)c1ccco1`, the TGI was greater than 100 µM.

On to `Cn1nc2c(c1N)Cc1c(nn(C)c1N)-c1ccccc1-2`, for which the TGI was greater than 100 µM.

`Cc1nnc2n1-c1ccccc1N(Cc1ccccc1)CC2` had a TGI greater than 100 µM.

`O=C(/C=C\Nc1ccccc1O)C(F)(F)F` registered a TGI greater than 100 µM.

As for `CC1(C)OC[C@@H](C[C@H](O)COCc2ccccc2)O1`, the TGI is greater than 100 µM.

Turning to `NC(N)=NS(=O)(=O)c1ccc(NC(=O)c2cccc3c(NNc4ccc(S(N)(=O)=O)cc4)c4ccccc4nc23)cc1`, the TGI is greater than 100 µM.

Compound `Nc1nncc2[nH]cnc12` displayed a TGI greater than 100 µM.

`O=[N+]([O-])/C(Cl)=C(/C(Cl)=C(Cl)Cl)N1CCCCC1` yielded a TGI of 43 µM.

On to `Nc1c(S(N)(=O)=O)cc(S(N)(=O)=O)cc1S(N)(=O)=O`, for which the TGI was greater than 100 µM.

`CCCCCCc1cc2cc(-c3csc(-c4ccc(OC)cc4)n3)c(=O)oc2cc1O` returned a TGI of 41 µM.

As for `COc1ccc(C2=C(Cl)C(=O)O/C2=C\c2ccc(OC)c(Br)c2)cc1Cl`, the TGI is greater than 100 µM.

On to `CNC(=S)NNc1ncnc2c1c(-c1ccc(Cl)cc1)cn2-c1ccc(C)cc1`, for which the TGI came out at 17.8 µM.

Compound `Clc1cc(C(c2cc(Cl)sc2Cl)c2cc(Cl)sc2Cl)c(Cl)s1` gave a concentration for total growth inhibition (TGI) greater than 100 µM.

Compound `COc1cc(OC)cc(Oc2nc3cc(F)c(F)cc3nc2-c2ccccc2)c1` displayed a TGI greater than 100 µM.

As to `C[N+]1(CCN=C=NC2CCCCC2)CCOCC1`, the TGI is greater than 100 µM.

In the case of `Cc1cc(S(=O)(=O)Nc2n[nH]c(Nc3ccccc3)n2)c(SCC(=O)O)cc1Cl`, the TGI was greater than 100 µM.

Compound `COc1cc2c3c(cc(Cl)nc3c1OC)C(=O)C(=O)N2` gave a TGI of 42.7 µM.

In turn, `CCCCCCCCCCCCOCCOCCOCCOCCOCCOCC(=O)NC(Cc1ccccc1)C(=O)Oc1ccc([N+](=O)[O-])cc1` (configuration not stated) gave a total growth inhibition concentration (TGI) greater than 100 µM.

In a further test the test system is TK-10 renal. The test is described as follows: DTP human tumour cell line panel, 48 h.
`Cc1ccc2c(c1C)CC1(Cc3c(C)ccc(C)c3C1=O)C2=O` (configuration not stated) showed a TGI greater than 100 µM.

For `O=CN1CCN(C(=O)c2ccco2)C1=S`, the TGI worked out at 31 µM. In other words, the double-digit micromolar range.

As for `O=C1/C(=C/c2ccc(Cl)cc2)CCCc2ccc(F)cc21`, the GI50 was 15.7 µM and the concentration for total growth inhibition (TGI) came to 43.5 µM.

As for `CC(=O)C1(O)CCC2(O)C3(O)CC=C4CC(O)CCC4(C)C3CC(OC(=O)c3ccc(O)cc3)C12C` (configuration not stated), the TGI was greater than 100 µM.

Compound `O=C1/C(=C/c2ccncc2)C(n2cccc2)c2c(Br)sc(Br)c21` (configuration not stated) had a TGI of 14.6 µM.

Compound `COCC#C[C@@]1(O)CCCCC1CC(OC)OC` (some centres not stated) returned a TGI greater than 100 µM.

`C=C1CC(COc2ccc3c(C)c(C)c(=O)oc3c2C)(c2ccccc2)OC1=O` (configuration not stated) yielded a TGI of 3.03 µM.

Turning to `CC(=O)OCC(=O)O[C@@H]1[C@H]2[C@@H](OC(=O)c3ccccc3)[C@@H](C)C[C@]2(O)[C@H](OC(C)=O)[C@@]2(C)C[C@]1(OC(C)=O)C[C@H]1C(=O)C(C)(C)[C@@H](OC(C)=O)[C@@H]12`, the TGI is greater than 25 µM.

With `O=C(Sc1c(-c2ccccc2)c(=O)n(-c2ccccc2)c(=S)n1-c1ccccc1)c1ccco1`, the TGI is greater than 100 µM.

In the case of `Cn1nc2c(c1N)Cc1c(nn(C)c1N)-c1ccccc1-2`, the TGI was greater than 100 µM.

The compound `Cc1nnc2n1-c1ccccc1N(Cc1ccccc1)CC2` returned a TGI greater than 100 µM.

As to `O=C(/C=C\Nc1ccccc1O)C(F)(F)F`, the TGI is greater than 100 µM.

For the compound `CC1(C)OC[C@@H](C[C@H](O)COCc2ccccc2)O1`, the TGI is greater than 100 µM.

For `NC(N)=NS(=O)(=O)c1ccc(NC(=O)c2cccc3c(NNc4ccc(S(N)(=O)=O)cc4)c4ccccc4nc23)cc1`, the TGI is greater than 100 µM.

Regarding `Nc1nncc2[nH]cnc12`, the TGI is greater than 100 µM.

For `O=[N+]([O-])/C(Cl)=C(/C(Cl)=C(Cl)Cl)N1CCCCC1`, the TGI is 35.8 µM.

On to `Nc1c(S(N)(=O)=O)cc(S(N)(=O)=O)cc1S(N)(=O)=O`, for which the TGI is greater than 100 µM.

Compound `CCCCCCc1cc2cc(-c3csc(-c4ccc(OC)cc4)n3)c(=O)oc2cc1O` showed a TGI of 34.1 µM.

`COc1ccc(C2=C(Cl)C(=O)O/C2=C\c2ccc(OC)c(Br)c2)cc1Cl` had a TGI of 38.3 µM.

In turn, `CNC(=S)NNc1ncnc2c1c(-c1ccc(Cl)cc1)cn2-c1ccc(C)cc1` displayed a TGI of 35 µM.

`Clc1cc(C(c2cc(Cl)sc2Cl)c2cc(Cl)sc2Cl)c(Cl)s1` showed a TGI greater than 100 µM.

`COc1cc(OC)cc(Oc2nc3cc(F)c(F)cc3nc2-c2ccccc2)c1` yielded a TGI greater than 100 µM.

For `C[N+]1(CCN=C=NC2CCCCC2)CCOCC1`, the TGI is greater than 100 µM.

The compound `Cc1cc(S(=O)(=O)Nc2n[nH]c(Nc3ccccc3)n2)c(SCC(=O)O)cc1Cl` registered a TGI greater than 100 µM.

Consider `COc1cc2c3c(cc(Cl)nc3c1OC)C(=O)C(=O)N2`, for which the TGI is 33.4 µM.

For the compound `CCCCCCCCCCCCOCCOCCOCCOCCOCCOCC(=O)NC(Cc1ccccc1)C(=O)Oc1ccc([N+](=O)[O-])cc1` (configuration not stated), the TGI is greater than 100 µM.

For another test, the system named is IGROV1 ovarian. The test is described as follows: DTP human tumour cell line panel, 48 h.
`Cc1ccc2c(c1C)CC1(Cc3c(C)ccc(C)c3C1=O)C2=O` (configuration not stated): the TGI was greater than 100 µM.

`O=CN1CCN(C(=O)c2ccco2)C1=S` showed a TGI of 25.3 µM.

Consider `O=C1/C(=C/c2ccc(Cl)cc2)CCCc2ccc(F)cc21`, for which the GI50 was 14.6 µM and the TGI is 68.3 µM.

Take `CC(=O)C1(O)CCC2(O)C3(O)CC=C4CC(O)CCC4(C)C3CC(OC(=O)c3ccc(O)cc3)C12C` (configuration not stated): the TGI is greater than 100 µM.

`O=C1/C(=C/c2ccncc2)C(n2cccc2)c2c(Br)sc(Br)c21` (configuration not stated) showed a TGI of 4.67 µM.

As for `COCC#C[C@@]1(O)CCCCC1CC(OC)OC` (some centres not stated), the TGI is greater than 100 µM.

In turn, `C=C1CC(COc2ccc3c(C)c(C)c(=O)oc3c2C)(c2ccccc2)OC1=O` (configuration not stated) showed a TGI of 3.47 µM.

`CC(=O)OCC(=O)O[C@@H]1[C@H]2[C@@H](OC(=O)c3ccccc3)[C@@H](C)C[C@]2(O)[C@H](OC(C)=O)[C@@]2(C)C[C@]1(OC(C)=O)C[C@H]1C(=O)C(C)(C)[C@@H](OC(C)=O)[C@@H]12` had a TGI greater than 25 µM.

For `O=C(Sc1c(-c2ccccc2)c(=O)n(-c2ccccc2)c(=S)n1-c1ccccc1)c1ccco1`, the TGI is greater than 100 µM.

The compound `Cn1nc2c(c1N)Cc1c(nn(C)c1N)-c1ccccc1-2` showed a TGI greater than 100 µM.

The compound `Cc1nnc2n1-c1ccccc1N(Cc1ccccc1)CC2` showed a TGI greater than 100 µM.

The compound `O=C(/C=C\Nc1ccccc1O)C(F)(F)F` came in with a TGI greater than 100 µM.
